Measured values: US20030180808A1, “Drug signatures” (priority 2002, published 2003)
“Also recorded” adds a separate entry of the source. Where two headings read alike, the source gives them in different places.

Assays:
[1] = target: T1, PPARα (Homo sapiens, UniProt Q07869); conditions: cited from earlier work
T1 sequence (Q07869 1-468): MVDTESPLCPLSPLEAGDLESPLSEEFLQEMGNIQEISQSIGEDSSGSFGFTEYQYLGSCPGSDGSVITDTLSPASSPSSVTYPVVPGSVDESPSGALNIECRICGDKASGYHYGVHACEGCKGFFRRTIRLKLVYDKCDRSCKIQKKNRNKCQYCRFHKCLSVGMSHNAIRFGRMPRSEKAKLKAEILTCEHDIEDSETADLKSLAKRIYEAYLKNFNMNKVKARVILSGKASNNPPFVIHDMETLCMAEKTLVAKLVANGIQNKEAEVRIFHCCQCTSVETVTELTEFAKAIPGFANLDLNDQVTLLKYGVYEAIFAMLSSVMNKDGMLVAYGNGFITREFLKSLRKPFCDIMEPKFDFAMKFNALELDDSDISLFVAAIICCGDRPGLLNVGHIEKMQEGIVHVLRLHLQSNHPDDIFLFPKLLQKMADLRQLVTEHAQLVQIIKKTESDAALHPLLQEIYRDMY

[2] = rats, from the literature or experience, cited from earlier work
[3] = test system: 123 assays completed (panel of sites of drug action and drug toxicity); test: Molecular pharmacology assay panel (MDS-Pharma Services catalog); conditions: for activity in the 123 assays completed: <50% inhibition binned as 0, preliminary test at 30 μM
[4] = target: T2, estrogen receptor (Homo sapiens, UniProt P03372); conditions: read-out: EC50 stimulation of ER; cited from earlier work
T2 sequence (P03372 1-595): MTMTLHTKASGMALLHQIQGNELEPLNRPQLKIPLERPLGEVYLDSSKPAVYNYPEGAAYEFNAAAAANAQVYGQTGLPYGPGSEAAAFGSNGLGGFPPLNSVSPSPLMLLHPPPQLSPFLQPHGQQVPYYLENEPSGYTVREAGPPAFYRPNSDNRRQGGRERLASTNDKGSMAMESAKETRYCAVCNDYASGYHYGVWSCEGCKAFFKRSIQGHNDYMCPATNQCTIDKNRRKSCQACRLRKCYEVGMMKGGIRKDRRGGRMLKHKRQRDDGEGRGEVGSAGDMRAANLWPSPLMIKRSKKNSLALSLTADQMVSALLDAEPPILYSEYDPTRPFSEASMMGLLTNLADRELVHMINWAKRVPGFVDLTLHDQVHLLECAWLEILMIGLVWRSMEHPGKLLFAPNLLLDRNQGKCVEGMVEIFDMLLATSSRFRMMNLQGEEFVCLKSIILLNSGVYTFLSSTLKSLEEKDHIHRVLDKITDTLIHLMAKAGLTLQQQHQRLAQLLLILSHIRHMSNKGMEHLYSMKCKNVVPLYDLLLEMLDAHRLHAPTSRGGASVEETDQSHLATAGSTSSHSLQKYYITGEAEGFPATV

[5] = hypertriglyceridemic patients; known side effect; cited from earlier work
[6] = target: T3, PXR receptors (Mus musculus, UniProt O54915); conditions: cited from earlier work
T3 sequence (O54915 1-431): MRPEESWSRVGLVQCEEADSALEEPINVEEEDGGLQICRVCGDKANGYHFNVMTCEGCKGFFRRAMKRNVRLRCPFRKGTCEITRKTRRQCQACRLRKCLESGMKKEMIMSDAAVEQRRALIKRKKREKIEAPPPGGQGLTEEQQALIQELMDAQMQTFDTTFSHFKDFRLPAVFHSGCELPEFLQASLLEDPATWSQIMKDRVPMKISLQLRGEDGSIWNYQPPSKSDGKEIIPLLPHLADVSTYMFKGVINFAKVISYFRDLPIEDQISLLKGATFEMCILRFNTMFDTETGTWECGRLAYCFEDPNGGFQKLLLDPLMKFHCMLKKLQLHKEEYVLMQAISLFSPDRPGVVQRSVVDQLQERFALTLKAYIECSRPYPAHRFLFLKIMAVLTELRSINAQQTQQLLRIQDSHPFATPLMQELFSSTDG

[7] = test system: site-2 sodium channel; test: Molecular pharmacology panel assay: site-2 sodium channel
[8] = target: T2, estrogen receptor; test: Molecular pharmacology panel assay: estrogen receptor

Compound	maximum tolerated dose (MTD) ([2]; oral gavage in 1% NaCMC)	activity in the 123 assays completed [3]	maximum tolerated dose (MTD) ([2]; subcutaneously in arrachis oil) [mg/kg]	further results
CCCCC(CC)COC(=O)c1ccccc1C(=O)OCC(CC)CCCC (centres unmarked) [DEHP]	1,000 mg/kg	no activity		stimulation of PPARα [1]: potently stimulate; EC50 [4]: ~1000 nM
Cc1ccc(C)c(OCCCC(C)(C)C(=O)O)c1 [Gemfibrozil, gemfibrozil]	300 mg/kg	no activity		effect on LDL levels [5]: induce an increase in LDL (low density lipoprotein) levels; also recorded: induces an increase in LDL levels
nonylphenol				EC50 ([6]; read-out: EC50 stimulation of PXR receptors): ~500 nM; EC50 [4]: ~1000 nM
CC(C)(C)CC(C)(C)c1ccc(O)cc1 [OP]			450	number of assays in which compound interacted ([3]; of the 123 assays conducted): 16
C[C@]12CC[C@@H]3c4ccc(OC(=O)c5ccccc5)cc4CC[C@H]3[C@@H]1CC[C@@H]2O [estradiol benzoate, Estradiol benzoate]			2	
CC(C)OC(=O)C(C)(C)Oc1ccc(C(=O)c2ccc(Cl)cc2)cc1 [Fenofibrate]	1,000 mg/kg			interaction with the site-2 sodium channel [7]: interacted weakly; interaction with the estrogen receptor [8]: interacted weakly
CC(C)(c1ccc(O)cc1)c1ccc(O)cc1 [BPA, bisphenol A]			150	activity on PXR [6]: completely inactive
C[C@]12CC[C@@H]3c4ccc(O)cc4CC[C@H]3[C@@H]1CC[C@@H]2O [Estradiol]				activity on PXR [6]: completely inactive
CCOC(=O)C(C)(C)Oc1ccc(Cl)cc1 [Clofibrate, clofibrate]	250 mg/kg	no activity		
